Source: the supplement of paper PMC11061612

Columns and labels:
Assay in all cases: combination Emax (second highest fraction inhibited in the dose matrix, 72 h); higher = more inhibition; extreme values may be limits of the assay
[1] = tested on: CAL-29 (Bladder Carcinoma)
In short: (§1)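 Cell lines grown in DMEM/F12 or RPMI with 10% FBS were plated in 1536-well plates and held 24 hours at 37°C, 5% CO2 before 72 hours of exposure to two-drug dose matrices, with DMSO typically at 0.2%. CellTiter-Glo 2.0 luminescence gave viability, which was converted to inhibition. Vehicle wells were set to 0 and blank wells to 1. Combination Emax is the second-highest inhibition in the matrix, and Bliss excess is the observed combination effect minus the expected EA + EB − EA·EB, where EA and EB are the single-agent effects.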

[2] = tested on: CAPAN-2 (Pancreatic Carcinoma)
In short: as §1

[3] = tested on: MDST8 (Colorectal Carcinoma)
In short: as §1

[4] = tested on: TT (Thyroid Gland Carcinoma)
In short: as §1

PA-1 (Ovarian Carcinoma) = tested on: PA-1 (Ovarian Carcinoma)
In short: as §1

[5] = tested on: NCI-H64 (Small Cell Lung Carcinoma)
In short: as §1

| SMILES | combination Emax [1] | combination Emax [2] | combination Emax [3] | combination Emax [4] | combination Emax (PA-1 (Ovarian Carcinoma)) | combination Emax [5] |
| --- | --- | --- | --- | --- | --- | --- |
| COc1nnc2ccc(N3CCC(c4ccc(OCCN5CCN(C)C(=O)[C@H]5C)cc4)CC3)nn12 [AZD5153] + CCN(CCO)CCCOc1ccc2c(Nc3cc(CC(=O)Nc4cccc(F)c4)[nH]n3)ncnc2c1 [AZD2811] (first compound max 1 µM, 7x7, partner max 1 µM) | 0.372 | 0.296 | 0.466 | 0.692 | 0.904 | 0.609 |
| COc1nnc2ccc(N3CCC(c4ccc(OCCN5CCN(C)C(=O)[C@H]5C)cc4)CC3)nn12 [AZD5153] + C[C@@H]1COCCN1C2=NC(=NC(=C2)C3(CC3)[S@](=N)(=O)C)C4=C5C=CNC5=NC=C4 [AZD6738] (first compound max 1 µM, 7x7, partner max 10 µM) | 0.7 | 0.379 | 0.812 | 0.629 | 0.973 | 0.927 |
| COc1nnc2ccc(N3CCC(c4ccc(OCCN5CCN(C)C(=O)[C@H]5C)cc4)CC3)nn12 [AZD5153] + Cc1c2c(nn1C)CSCc1cc(n(C)n1)CSc1cc(c3ccccc3c1)OCCCc1c(C(=O)O)n(C)c3c-2c(Cl)ccc13 [AZD5991] (first compound max 1 µM, 7x7, partner max 1 µM) | 0.355 | 0.296 | 0.355 | 0.623 | 1 | 0.399 |
| COc1nnc2ccc(N3CCC(c4ccc(OCCN5CCN(C)C(=O)[C@H]5C)cc4)CC3)nn12 [AZD5153] + Cn1cnc2c(F)c(Nc3ccc(Br)cc3Cl)c(C(=O)NOCCO)cc21 [Selumetinib] (first compound max 1 µM, 7x7, partner max 10 µM) | 0.595 | 0.452 | 0.826 | 0.524 | 0.91 | 0.237 |
| Cc1c2c(nn1C)CSCc1cc(n(C)n1)CSc1cc(c3ccccc3c1)OCCCc1c(C(=O)O)n(C)c3c-2c(Cl)ccc13 [AZD5991] + C1CN(CCC1(C(=O)N[C@@H](CCO)C2=CC=C(C=C2)Cl)N)C3=NC=NC4=C3C=CN4 [Capivasertib] (first compound max 1 µM, 7x7, partner max 3 µM) | 0.342 | 0.227 | 0.269 | 0.366 | 0.947 | 0.378 |
| Cc1c2c(nn1C)CSCc1cc(n(C)n1)CSc1cc(c3ccccc3c1)OCCCc1c(C(=O)O)n(C)c3c-2c(Cl)ccc13 [AZD5991] + C=CCn1c(=O)c2cnc(Nc3ccc(N4CCN(C)CC4)cc3)nc2n1-c1cccc(C(C)(C)O)n1 [AZD1775] (first compound max 1 µM, partner max 1 µM) | 0.919 | 0.428 | 0.597 | 0.428 | 0.937 | 0.933 |
| Cc1c2c(nn1C)CSCc1cc(n(C)n1)CSc1cc(c3ccccc3c1)OCCCc1c(C(=O)O)n(C)c3c-2c(Cl)ccc13 [AZD5991] + CC1(C)CCC(CN2CCN(c3ccc(C(=O)NS(=O)(=O)c4ccc(NCC5CCOCC5)c([N+](=O)[O-])c4)c(Oc4cnc5[nH]ccc5c4)c3)CC2)=C(c2ccc(Cl)cc2)C1 [Venetoclax] (first compound max 1 µM, 7x7, partner max 1 µM) | 0.391 | 0.153 | 0.228 | 0.83 | 0.964 | 0.359 |
| Cc1c2c(nn1C)CSCc1cc(n(C)n1)CSc1cc(c3ccccc3c1)OCCCc1c(C(=O)O)n(C)c3c-2c(Cl)ccc13 [AZD5991] + CCN(CCO)CCCOc1ccc2c(Nc3cc(CC(=O)Nc4cccc(F)c4)[nH]n3)ncnc2c1 [AZD2811] (first compound max 1 µM, 7x7, partner max 1 µM) | 0.739 | 0.239 | 0.362 | 0.574 | 0.932 | 0.788 |
| Cc1c2c(nn1C)CSCc1cc(n(C)n1)CSc1cc(c3ccccc3c1)OCCCc1c(C(=O)O)n(C)c3c-2c(Cl)ccc13 [AZD5991] + CN(C)CCCOc1ccc(-c2ccc3ncc4c(c3c2)n(C2CCOCC2)c(=O)n4C)cn1 [AZD0156] (first compound max 1 µM, 7x7, partner max 1 µM) | 0.545 | 0.276 | 0.242 | 0.297 | 0.855 | 0.346 |
| Cc1c2c(nn1C)CSCc1cc(n(C)n1)CSc1cc(c3ccccc3c1)OCCCc1c(C(=O)O)n(C)c3c-2c(Cl)ccc13 [AZD5991] + C[C@@H]1COCCN1C2=NC(=NC(=C2)C3(CC3)[S@](=N)(=O)C)C4=C5C=CNC5=NC=C4 [AZD6738] (first compound max 1 µM, 7x7, partner max 10 µM) | 0.897 | 0.35 | 0.78 | 0.56 | 0.967 | 0.905 |
| Cc1c2c(nn1C)CSCc1cc(n(C)n1)CSc1cc(c3ccccc3c1)OCCCc1c(C(=O)O)n(C)c3c-2c(Cl)ccc13 [AZD5991] + C[C@@H](Nc1cc(F)cc(F)c1)c1cc(C(=O)N(C)C)cc2c(=O)cc(N3CCOCC3)oc12 [AZD8186] (first compound max 1 µM, 7x7, partner max 3 µM) | 0.421 | 0.252 | 0.265 | 0.394 | 0.964 | 0.406 |
| Cc1c2c(nn1C)CSCc1cc(n(C)n1)CSc1cc(c3ccccc3c1)OCCCc1c(C(=O)O)n(C)c3c-2c(Cl)ccc13 [AZD5991] + Cc1cc2ncnn2cc1Nc1ncc2c(n1)n(C1CCOCC1)c(=O)n2C [AZD7648] (first compound max 1 µM, 7x7, partner max 10 µM) | 0.43 | 0.291 | 0.34 | 0.38 | 0.906 | 0.341 |
| Cc1c2c(nn1C)CSCc1cc(n(C)n1)CSc1cc(c3ccccc3c1)OCCCc1c(C(=O)O)n(C)c3c-2c(Cl)ccc13 [AZD5991] + Cn1cnc2c(F)c(Nc3ccc(Br)cc3Cl)c(C(=O)NOCCO)cc21 [Selumetinib] (first compound max 1 µM, 7x7, partner max 3 µM) | 0.677 | 0.482 | 0.746 | 0.339 | 0.865 | 0.295 |
| C[C@@H]1COCCN1c1cc(C2([S@](C)(=N)=O)CC2)nc(-c2ccnc3[nH]ccc23)n1 [AZD6738] + O=C(c1cc(Cc2n[nH]c(=O)c3ccccc23)ccc1F)N1CCN(C(=O)C2CC2)CC1 [Olaparib] (first compound max 10 µM, 7x7, partner max 10 µM) | 0.71 | 0.309 | 0.677 | 0.419 | 0.768 | 0.692 |
| Cc1cc2ncnn2cc1Nc1ncc2c(n1)n(C1CCOCC1)c(=O)n2C [AZD7648] + C=CCn1c(=O)c2cnc(Nc3ccc(N4CCN(C)CC4)cc3)nc2n1-c1cccc(C(C)(C)O)n1 [AZD1775] (first compound max 10 µM, partner max 1 µM) | 0.618 | 0.485 | 0.513 | 0.475 | 0.706 | 0.89 |
| Cc1cc2ncnn2cc1Nc1ncc2c(n1)n(C1CCOCC1)c(=O)n2C [AZD7648] + CCN(CCO)CCCOc1ccc2c(Nc3cc(CC(=O)Nc4cccc(F)c4)[nH]n3)ncnc2c1 [AZD2811] (first compound max 10 µM, 7x7, partner max 1 µM) | 0.301 | 0.239 | 0.485 | 0.611 | 0.315 | 0.596 |
| Cc1cc2ncnn2cc1Nc1ncc2c(n1)n(C1CCOCC1)c(=O)n2C [AZD7648] + CN(C)CCCOc1ccc(-c2ccc3ncc4c(c3c2)n(C2CCOCC2)c(=O)n4C)cn1 [AZD0156] (first compound max 10 µM, 7x7, partner max 1 µM) | 0.218 | 0.253 | 0.439 | 0.41 | 0.239 | 0.279 |
| Cc1cc2ncnn2cc1Nc1ncc2c(n1)n(C1CCOCC1)c(=O)n2C [AZD7648] + C[C@@H]1COCCN1C2=NC(=NC(=C2)C3(CC3)[S@](=N)(=O)C)C4=C5C=CNC5=NC=C4 [AZD6738] (first compound max 10 µM, 7x7, partner max 10 µM) | 0.598 | 0.346 | 0.775 | 0.604 | 0.75 | 0.811 |
| Cc1cc2ncnn2cc1Nc1ncc2c(n1)n(C1CCOCC1)c(=O)n2C [AZD7648] + O=C(c1cc(Cc2n[nH]c(=O)c3ccccc23)ccc1F)N1CCN(C(=O)C2CC2)CC1 [Olaparib] (first compound max 10 µM, 7x7, partner max 10 µM) | 0.384 | 0.0547 | 0.289 | 0.161 | 0.374 | 0.134 |
